Measurements taken from patent US20110301079A1, “NEUROMEDIN U RECEPTOR AGONISTS AND USES THEREOF” (Instituto di Ricerche di Biologia Molecolare P. Angeletti …, priority 2007, published 2011).

Experiments:
[1] = test system: male diet-induced obese mice; experiment: Acute feeding study with NMU and NMS; format: in vivo
Method: Ad libitum fed male diet-induced obese mice obtained from Taconic Farms were weighed and dosed either i.p. or s.c. with NMS or NMU at about 30 minutes prior to the onset of the dark phase of the light cycle and provided with a pre-weighed aliquot of high fat diet (D12492: 60% kcal from fat: Research Diets, Inc.), which was then weighed two and 18 hours after the onset of the initial dark phase. Mice were weighed at the 18 hour (overnight) time point.

dog NMUR2 = target: T1, dog NMUR2 (Canis lupus familiaris, UniProt A0A8I3MN59); experiment: FLIPR calcium mobilization assay, dog NMUR2 cell line; format: cell-based
T1 construct: expressed in transfected cells
Excerpt: Human, mouse or rat cDNAs encoding NMUR1 or NMUR2 (as described in Howard et al. Nature 406: 70-74 (2000) were subcloned in pcDNA5 (Invitrogen) and transfected into FLP-In CHO cells and HEK-293 FLP-In cells purchased from Invitrogen (Carlsbad, Calif.) using lipofectamine (Invitrogen). The Flp-In system allows integration and expression of a particular gene of interest at a specific genomic location utilizing the Flp recombinase from yeast. The transfected cells were selected by growth in medium containing 200 μg/mL hygromycin (Invitrogen). Populations were frozen at early passage numbers, and these stocks were used for further studies. Stable clones that expressed the mRNAs were identified functionally by FLIPR as well as by RT-PCR. […] Two different rodent NMUR1 cell lines were thus generated: one with the codon as predicted from the genomic databases and another cell line with an engineered methionine (ATG) as the start codon. The dog NMU receptors were also cloned from intestine RNA (NMUR1) and brain (NMUR2) and stable cell lines were generated as used for the human and rodent cell lines. […] To ensure high levels of expression in a heterologous system, a dog NMUR1 cell line was generated that contains an ATG as the start codon. Additionally, stable cell lines expressing the human receptors were generated in HEK-293/aeq 17 cells which stably express the aequorin gene under the CMV promoter. The human NMUR2 cDNA was cloned into pcDNA3.1 and human NMUR1 was subcloned into pIRES-puro (Clontech, Mountain View, Calif.), after transfection cells were selected in media containing G418 and either hygromycin (NMUR2) or puromycin (NMUR1).
The NMU receptors signal primarily through Gαq/11 proteins; therefore calcium mobilization assays can be utilized for functional activity.
Stable cell lines expressing human and or rodent NMUR1 or human NMUR2 receptors are plated at a density of 12,000 cells per well overnight on poly-lysine coated 384-well black-walled plates. The following day, the media is removed from the plates and the cells were subsequently loaded with Fluo-3 (Molecular Probes), a calcium sensitive dye, diluted in FLIPR buffer (1× Hank's buffered saline containing 20 mM HEPES, 0.1% BSA, 2.5 mM probenecid (Sigma) and 1.6 mM TR40). All reagents are from Invitrogen unless otherwise noted. Peptide stocks are resuspended in DMSO at a stock concentration of 2 mM and diluted in FLIPR buffer on the day of the experiment to a 4 μM working stock solution.
After a 90 minute incubation at room-temperature, cell plates are loaded onto a FLIPR (Molecular Devices) to monitor cellular fluorescence (excitation=488 nm; emission=540 nm) before and after compound/peptide addition. Eight to twelve point dose responses are tested on NMUR-expressing cell lines using FLIPR with 1 μM peptide as the highest dose. The response after peptide addition is taken as the maximum fluorescence units minus the fluorescence immediately prior to stimulation for each well. EC50 values are calculated using GraphPad Prism (San Diego, Calif.) software.
Percent activity refers to the maximum response at 1 μM compared to the human NMU-25 response at the same concentration.

T1 sequence (A0A8I3MN59 1-378): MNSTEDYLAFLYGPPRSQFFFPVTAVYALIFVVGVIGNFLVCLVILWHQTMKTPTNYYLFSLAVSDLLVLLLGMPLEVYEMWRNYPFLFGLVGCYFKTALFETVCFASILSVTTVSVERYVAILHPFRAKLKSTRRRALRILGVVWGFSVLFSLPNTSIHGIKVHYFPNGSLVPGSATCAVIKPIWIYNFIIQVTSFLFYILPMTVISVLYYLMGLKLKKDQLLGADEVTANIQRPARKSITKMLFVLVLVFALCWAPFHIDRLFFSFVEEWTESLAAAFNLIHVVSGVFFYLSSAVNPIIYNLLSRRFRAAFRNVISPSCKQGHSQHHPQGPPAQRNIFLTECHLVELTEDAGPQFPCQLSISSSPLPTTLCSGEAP

In the case of “H-ILQRGSGTAAVDFTKKDHTATWGRPFFLFRPRN-NH2 [NMS, reference compound]”, the “anorectic effects compared with NMU” value ([1]; acute peripheral administration) is reported as “appeared to be greater than the anorectic effects observed with NMU”, the food intake ([1]; acute peripheral administration (i.p. or s.c.), FIG. 1A) is reported as “significantly reduced” and the body weight ([1]; acute peripheral administration, 18 hour (overnight), FIG. 1B) is reported as “significantly reduced”. For the same substance, the EC50 (dog NMUR2; dog NMUR2, FLIPR) was 1 nM and the “% Activity” value (dog NMUR2; dog NMUR2, maximum response at 1 μM compared to the human NMU-25 response at the same concentration) was 104%.
